Laboratory results reported in patent US7767194B2, “Optical diagnostic and therapeutic agents and compositions” (Mallinckrodt Inc., priority 2000, dated 2010).

Legend:
[1] = Imaging of individual organs removed from CA20948 tumor-bearing rat; format: in vivo
Procedure: Individual organs were removed at about 24 hours post Cytate 1 administration and imaged.

[2] = tested on: Rat pancreatic acinar carcinoma expressing the SST-2 receptor (CA20948); assay: Non-invasive in vivo fluorescence imaging of rat pancreatic acinar carcinoma (CA20948)
Excerpt: (§1) A non-invasive in vivo fluorescence imaging apparatus was employed to assess the efficacy of contrast agents developed for tumor detection in animal models. A LaserMax Inc. laser diode of nominal wavelength 780 nm and nominal power of 40 mW was used. The detector was a Princeton Instruments model RTE/CCD-1317-K/2 CCD camera with a Rodenstock 10 mm F2 lens (stock #542.032.002.20) attached. An 830 nm interference […] (CVI Laser Corp., part # F10-830-4-2) was mounted in front of the CCD input lens such that only emitted fluorescent light from the contrast agent was imaged. Typically, an image of the animal was taken pre-injection of contrast agent. This image was subsequently subtracted (pixel by pixel) from the post injection images. However, the background subtraction was […] done once the animal had been removed from the sample area and returned at a later time for images taken several hours post injection.
DSL 6A tumors were induced in male Lewis rats in the left flank area by the introduction of material from a solid (donor) implant and the tumors were palpable in approximately 14 days. The animals were anesthetized with xylazine; ketamine; acepromazine 1.5:1.5:0.5 at 0.8 mL/kg via intramuscular injection. The area of the tumor (left flank) was shaved to expose tumor and surrounding surface area. A 21 gauge butterfly equipped with a stopcock and two syringes containing heparinized saline was placed into the later tail vein of the rat. Patency of the vein was checked prior to administration of the ICG via the butterfly apparatus. Each animal received […] of a 0.42 mg/mL solution of ICG in water.
The imaging apparatus and the procedure used are described in Example 12. Rat pancreatic acinar carcinoma expressing the SST-2 receptor (CA20948) was induced by solid implant technique in the left flank area, and palpable masses were detected nine days post implant. The images obtained at 2 and 30 minutes post injection are shown in FIG. 7E-F. FIGS. 7E-F are images of a rat with an induced pancreatic acinar carcinoma (CA20948) expressing the SST-2 receptor imaged at two minutes (FIG. 7E) and 30 minutes (FIG. 7F) post injection.
The imaging apparatus and the procedure used are described in Example 12 except that each animal received 500 μl of a 1.0 mg/mL solution of Cytate 1 solution of 25% dimethylsulfoxide in water.
Rat pancreatic acinar carcinoma expressing the SST-2 receptor (CA20948) were induced by solid implant technique in the left flank area, and palpable masses were detected 24 days post implant. Images were obtained at various times post injection.
Cytate 1 was evaluated in the CA20948 Lewis rat model. […] At 27 hours post injection, the animal was again imaged (FIG. 9B).

[3] = Monitoring of the blood clearance profile of peptide-dye conjugates; format: in vivo; conditions: rat ear, bolus injection in lateral tail vein, 830 nm after excitation at 780 nm
Excerpt: A laser of appropriate wavelength for excitation of the dye chromophore was directed into one end of a fiber optic bundle and the other end was positioned a few millimeters from the ear of a rat. A second fiber optic bundle was also positioned near the same ear to detect the emitted fluorescent light and the other end was directed into the optics and electronics for data collection. An interference filter (IF) in the collection optics train was used to select emitted fluorescent light of the appropriate wavelength for the dye chromophore.
After the animals had achieved the desired plane of anesthesia, a 21 gauge butterfly with 12″ tubing was placed in the lateral tail vein of each animal and flushed with heparinized saline. The animals were placed onto a heating pad and kept warm throughout the entire study. The lobe of the left ear was affixed to a glass microscope slide to reduce movement and vibration.
Incident laser light delivered from the fiber optic was centered on the affixed ear. Data acquisition was then initiated, and a background reading of fluorescence was obtained prior to administration of the test agent. […] This procedure was repeated with several dye-peptide conjugates in normal and tumor bearing rats. […] The data were analyzed using a standard sigma plot software program for a one compartment model.

[4] = tested on: Prostatic carcinoma tumor (Dunning R3327-H); assay: Non-invasive in vivo fluorescence imaging of prostatic carcinoma (R3327-H); set-up: species or system rat
DSL 6A tumors = assay: Non-invasive in vivo fluorescence imaging of pancreatic ductal adenocarcinoma (DSL 6A); set-up: species or system rat
Excerpt: as §1
DSL 6A tumors were induced in male Lewis rats in the left flank area by the introduction of material from a solid (donor) implant and the tumors were palpable in approximately 14 days. The animals were anesthetized with xylazine; ketamine; acepromazine 1.5:1.5:0.5 at 0.8 mL/kg via intramuscular injection. The area of the tumor (left flank) was shaved to expose tumor and surrounding surface area. […]

[5] = organ removed about 24 hours post administration
[6] = tissue removed about 24 hours post administration
[7] = CA20948 tumor, 45 minutes post injection

Structure (SMILES): C[C@@H](O)[C@H](NC(=O)[C@@H]1CSSC[C@H](NC(=O)[C@@H](Cc2ccccc2)NC(=O)CCN2C(=CC=CC=CC=CC3=[N+](CCC(=O)O)c4ccc5ccccc5c4C3(C)C)C(C)(C)c3c2ccc2ccccc32)C(=O)N[C@@H](Cc2ccc(O)cc2)C(=O)N[C@H](Cc2c[nH]c3ccccc23)C(=O)N[C@@H](CCCCN)C(=O)N[C@@H]([C@@H](C)O)C(=O)N1)C(=O)O [Cytate 1, monoOctreotate-Bismethylcarboxymethylindocyanine dye]
- uptake in adrenals [1, 5]: high uptake
- uptake in heart [1, 5]: significantly lower uptake
- uptake in liver [1, 5]: significantly lower uptake
- uptake in pancreas [1, 5]: high uptake
- uptake in spleen [1, 5]: significantly lower uptake
- uptake in muscle [1, 6]: significantly lower uptake
- uptake in tumor tissue [1, 6]: high uptake
- localization of dye in the tumor ([2]; CA20948 Lewis rat model, 45 minutes post injection): localization of this dye was observed in the tumor
- tumor visualization ([2]; CA20948 Lewis rat model, 27 hours post injection): easily observed
- time course of uptake into the tumor ([2]; CA20948 tumor, 500 μl of 1.0 mg/mL in 25% dimethylsulfoxide in water): seen at two minutes but was not maximal until about five minutes
- uptake (dye fluorescence) in tumor at 45 minutes [2, 7]: still quite intense
- persistence of dye fluorescence in the tumor ([2]; CA20948 tumor, post-injection): remained intense in the tumor for several hours
- fluorescence signal in blood after injection (rise) [3]: rapidly increased to a peak value
- fluorescence signal in blood over time (clearance) [3]: decayed as a function of time

Structure (SMILES): C[C@@H](O)[C@H](NC(=O)[C@@H]1CSSC[C@H](NC(=O)[C@@H](Cc2ccccc2)NC(=O)CCN2C(=CC=CC=CC=CC3=[N+](CCC(=O)N[C@H](Cc4ccccc4)C(=O)N[C@H]4CSSC[C@@H](C(=O)N[C@H](C(=O)O)[C@@H](C)O)NC(=O)[C@H]([C@@H](C)O)NC(=O)[C@H](CCCCN)NC(=O)[C@@H](Cc5c[nH]c6ccccc56)NC(=O)[C@H](Cc5ccc(O)cc5)NC4=O)c4ccc5ccccc5c4C3(C)C)C(C)(C)c3c2ccc2ccccc32)C(=O)N[C@@H](Cc2ccc(O)cc2)C(=O)N[C@H](Cc2c[nH]c3ccccc23)C(=O)N[C@@H](CCCCN)C(=O)N[C@@H]([C@@H](C)O)C(=O)N1)C(=O)O [Cytate 2, bisOctreotate-Bismethylcarboxymethylindocyanine dye]
- fluorescence signal in blood after injection (rise) [3]: rapidly increased to a peak value
- fluorescence signal in blood over time (clearance) [3]: decayed as a function of time

Structure (SMILES): CC1(C)C(/C=C/C=C/C=C/C=C2\N(CCCCS(=O)(=O)O)c3ccc4ccccc4c3C2(C)C)=[N+](CCCCS(=O)(=O)[O-])c2ccc3ccccc3c21 [ICG, indocyanine green]
- perfusion of the agent into the tumor ([4]; Dunning R3327H (prostate) tumor line, CCD camera): slow perfusion of the agent over time into the tumor
- dye intensity in the tumor ([4]; R3327-H tumor, Copenhagen rats, 30 minutes post-ICG injection (vs two minutes)): considerably diminished
- perfusion of the agent into the tumor ([2]; CA20948 (pancreatic) tumor line, CCD camera): only a slight but transient perfusion that was absent after only 30 minutes post injection
- dye intensity in the tumor ([2]; CA20948 tumor, 30 minutes post-ICG injection (vs two minutes)): considerably diminished and almost absent
- uptake (dye fluorescence) in tumor at 45 minutes [2, 7]: mostly cleared
- perfusion of the agent into the tumor (DSL 6A tumors; DSL 6/A (pancreatic) tumor line, CCD camera): slow perfusion of the agent over time into the tumor
- dye intensity in the tumor (DSL 6A tumors; DSL 6A tumor, male Lewis rats, 30 minutes post-ICG injection (vs two minutes), tail vein bolus 0.5 ml aqueous solution): considerably diminished
